# Test system: Mycobacterium tuberculosis
# Assay: Antitubercular activity against Mycobacterium tuberculosis SRMV2.6 harboring IMPDH2 Y487C mutant using 7H9/ADC/Tween medium after 1 week in absence of guanine by Alamar blue assay
# Assay type: functional
row,SMILES,MIC
1,C[C@H](Oc1cccc(Cl)c1Cl)C(=O)Nc1ccc2oc(-c3ccc(C(=O)O)cc3)nc2c1,25 µM
2,CCOC(=O)COc1ccc(-c2nc3cc(NC(=O)[C@H](C)Oc4cccc(Cl)c4Cl)ccc3o2)cc1,3.1 µM
3,C[C@H](Nc1cccc(F)c1F)C(=O)Nc1ccc2oc(-c3ccc(C#N)cc3)nc2c1,>100 µM
4,COc1ccc(OC(C)C(=O)Nc2ccc3oc(-c4ccncc4)nc3c2)cc1 (centres undefined),>100 µM

# Source: ChEMBL document CHEMBL4184333, “Expanding Benzoxazole-Based Inosine 5'-Monophosphate Dehydrogenase (IMPDH) Inhibitor Structure-Activity As Potential Antituberculosis Agents” (J Med Chem, 2018)
